Measurements reported in patent publication US20250179083A1, “TRICYCLIC TRIAZOLO COMPOUNDS AS DGK INHIBITORS” (Incyte Corporation, priority 2023, published 2025).

Assays:
DGKζ = biological target: T1, DGKζ (Homo sapiens, UniProt Q13574); experiment: In vitro DGKζ inhibition assay (ADP-Glo); type: biochemical; settings: His-tagged human recombinant DGKζ 0.4 nM, 30 μM ATP, 20 μM DLG, 90 minute incubation
T1 construct: His; purchased Signal Chem D30-10H
Method: (§1) The DGKα and DGKζ biochemical reactions were performed using His-tagged human recombinant enzymes (Signal Chem, DGKα, #D21-10BH; DGKζ, #D30-10H)) and DLG (Dilauroyl-sn-glycerol) lipid substrate (Signal Chem, #D430-59). ADP-Glo assay was performed using ADP-Glo™ kinase Assay kit (Promega, #V9104). The reactions were carried out in assay buffer containing 40 mM Tris, pH 7.5, 0.1% CHAPS, 0.1% Prionex, 40 mM NaCl, 5 mM MgCl2, 1 mM CaCl2, and 1 mM DTT. DGKα reactions contained 0.1 nM DGKα, 50 μM ATP, and 20 μM DLG. And DGKζ reactions contained 0.4 nM DGKζ, 30 μM ATP, and 20 μM DLG.
(§2) Compounds were added with top concentration of 2 mM with 11 point, 3-fold dilution series. Enzyme solution (contains 2×DGK enzyme concentration in 1× assay buffer) was added to the plate in 2 μL/well volume, followed by 2 μL/well of substrate solution (contains 2× concentration of ATP and DLG substrate in 1× assay buffer). Plates were then centrifuged for 1 min at 1200 RPM and sealed or lidded. For 4 μL reaction volume, test compounds were therefore diluted 100× to final top concentration of 20 μM. After 90 minute incubation, reactions were quenched by addition of 2 μL/well Promega ADP-Glo Reagent, followed by centrifugation and lidding. After 60 min incubation, 2 μL/well Promega Kinase Detection Reagent was added, plates centrifuged, and incubated for 30 min. Plates were then read using Luminescence method on BMG PHERAstar FSX plate reader. Percent inhibition was calculated and IC50s were determined using 4-parameter fit in Genedata Screener. Labcyte Echo acoustic dispenser was used for compound addition, and Formulatrix Tempest liquid handler was used for all reagent dispenses.

DGKα = biological target: T2, DGKα (Homo sapiens, UniProt P23743); experiment: In vitro DGKα inhibition assay (ADP-Glo); type: biochemical; settings: His-tagged human recombinant DGKα 0.1 nM, 50 μM ATP, 20 μM DLG, 90 minute incubation
T2 construct: His; purchased Signal Chem D21-10BH
Method: as §1, §2

T1 sequence (Q13574 whole entry): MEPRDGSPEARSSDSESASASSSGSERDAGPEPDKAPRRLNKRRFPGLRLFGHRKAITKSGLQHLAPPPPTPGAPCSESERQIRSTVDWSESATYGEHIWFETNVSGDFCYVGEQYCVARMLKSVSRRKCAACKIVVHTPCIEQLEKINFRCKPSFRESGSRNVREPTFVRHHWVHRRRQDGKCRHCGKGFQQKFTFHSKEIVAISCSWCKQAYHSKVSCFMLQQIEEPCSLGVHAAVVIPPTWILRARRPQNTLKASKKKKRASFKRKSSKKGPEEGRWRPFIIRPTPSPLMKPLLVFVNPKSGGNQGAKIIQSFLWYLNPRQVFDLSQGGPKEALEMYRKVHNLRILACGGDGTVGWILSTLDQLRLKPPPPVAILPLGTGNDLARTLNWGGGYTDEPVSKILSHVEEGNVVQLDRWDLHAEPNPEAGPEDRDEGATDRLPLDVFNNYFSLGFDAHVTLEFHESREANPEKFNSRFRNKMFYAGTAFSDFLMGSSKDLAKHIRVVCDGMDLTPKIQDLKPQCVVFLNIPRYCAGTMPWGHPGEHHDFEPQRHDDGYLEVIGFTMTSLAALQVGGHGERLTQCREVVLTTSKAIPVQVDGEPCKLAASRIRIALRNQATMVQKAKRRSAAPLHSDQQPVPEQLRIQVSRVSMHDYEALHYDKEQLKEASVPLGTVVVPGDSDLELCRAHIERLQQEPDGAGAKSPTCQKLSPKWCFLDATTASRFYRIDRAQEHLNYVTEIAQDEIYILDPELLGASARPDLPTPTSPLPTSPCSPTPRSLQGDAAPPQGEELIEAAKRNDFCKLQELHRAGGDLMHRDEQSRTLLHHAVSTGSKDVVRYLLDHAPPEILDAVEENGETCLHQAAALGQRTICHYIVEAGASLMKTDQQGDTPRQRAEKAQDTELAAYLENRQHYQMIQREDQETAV
T2 sequence (P23743 whole entry): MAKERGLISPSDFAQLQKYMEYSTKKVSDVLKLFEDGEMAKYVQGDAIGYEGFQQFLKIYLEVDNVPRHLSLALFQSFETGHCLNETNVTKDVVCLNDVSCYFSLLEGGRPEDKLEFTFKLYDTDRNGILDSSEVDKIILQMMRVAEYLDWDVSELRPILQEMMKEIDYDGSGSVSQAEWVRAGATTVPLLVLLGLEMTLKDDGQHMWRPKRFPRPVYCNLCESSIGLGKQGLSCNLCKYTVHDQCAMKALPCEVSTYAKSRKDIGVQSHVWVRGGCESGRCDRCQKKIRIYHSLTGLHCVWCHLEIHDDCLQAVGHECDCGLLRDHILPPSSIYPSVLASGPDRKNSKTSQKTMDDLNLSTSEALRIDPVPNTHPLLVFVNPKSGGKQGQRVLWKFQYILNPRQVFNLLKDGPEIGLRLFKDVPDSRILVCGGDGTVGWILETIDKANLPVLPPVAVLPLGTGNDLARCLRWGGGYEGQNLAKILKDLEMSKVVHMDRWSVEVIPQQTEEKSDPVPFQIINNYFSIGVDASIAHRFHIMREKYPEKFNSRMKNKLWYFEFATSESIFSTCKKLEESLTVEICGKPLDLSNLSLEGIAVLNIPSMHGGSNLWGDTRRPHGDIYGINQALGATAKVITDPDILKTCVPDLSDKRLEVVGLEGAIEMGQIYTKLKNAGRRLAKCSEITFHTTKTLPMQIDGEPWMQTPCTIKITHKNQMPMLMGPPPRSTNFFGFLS

Row | Compound | IC50 (DGKζ) [nM] | IC50 (DGKα) [nM]
1 | C[C@@H]1CN(c2nc3nncn3c3c2ncn3C[C@@H]2CCCO2)[C@@H](C)CN1C(c1ccc(Cl)cn1)c1ccc(Cl)cn1 [Example 20, 4-((2S,5R)-4-(Bis(5-chloropyridin-2-yl)methyl)-2,5-dimethylpiperazin-1-yl)-1-(((S)-tetrahydrofuran-2-yl)methyl)-1H-[1,2,4]triazolo[3,4-b]purine] | < 20 | < 20
2 | Cc1nc2c(N3C[C@@H](C)N(C(c4ccc(C(F)F)cc4F)C(C)C)C[C@@H]3C)nc3nncn3c2n1C[C@@H]1CCCO1 (stereo partly drawn) [Example 25, 4-((2S,5R)-4-(1-(4-(Difluoromethyl)-2-fluorophenyl)-2-methylpropyl)-2,5-dimethylpiperazin-1-yl)-2-methyl-1-(((S)-tetrahydrofuran-2-yl)methyl)-1H-[1,2,4]triazolo[3,4-b]purine] | < 20 | < 20
3 | Cc1nc2c(N3C[C@@H](C)N([C@H](c4ccc(Br)cc4F)C(C)C)C[C@@H]3C)nc3nncn3c2n1C[C@@H]1CCCO1 [Example 26, 4-((2S,5R)-4-((S)-1-(4-Bromo-2-fluorophenyl)-2-methylpropyl)-2,5-dimethylpiperazin-1-yl)-2-methyl-1-(((S)-tetrahydrofuran-2-yl)methyl)-1H-[1,2,4]triazolo[3,4-b]purine] | < 20 | < 20
4 | Cc1nc2c(N3C[C@@H](C)N([C@H](c4ccc(Cl)cc4F)C(C)C)C[C@@H]3C)nc3nncn3c2n1C[C@@H]1CCCO1 [Example 28, 4-((2S,5R)-4-((S)-1-(4-Chloro-2-fluorophenyl)-2-methylpropyl)-2,5-dimethylpiperazin-1-yl)-2-methyl-1-(((S)-tetrahydrofuran-2-yl)methyl)-1H-[1,2,4]triazolo[3,4-b]purine] | < 20 | < 20
5 | C[C@@H]1CN(c2nc3nncn3c3c2ncn3C[C@@H]2CCCO2)[C@@H](C)CN1C(c1ccc(Cl)c(F)c1)C1CC(F)(F)C1 (stereo partly drawn) [Example 30, 4-((2S,5R)-4-((4-Chloro-3-fluorophenyl)(3,3-difluorocyclobutyl)methyl)-2,5-dimethylpiperazin-1-yl)-1-(((S)-tetrahydrofuran-2-yl)methyl)-1H-[1,2,4]triazolo[3,4-b]purine] | < 20 | < 20
6 | C[C@@H]1CN(c2nc3nncn3c3c2ncn3C[C@@H]2CCCO2)[C@@H](C)CN1C(c1ccc(Cl)cc1)C1CC(F)(F)C1 (stereo partly drawn) [Example 32, 4-((2S,5R)-4-((4-Chlorophenyl)(3,3-difluorocyclobutyl)methyl)-2,5-dimethylpiperazin-1-yl)-1-(((S)-tetrahydrofuran-2-yl)methyl)-1H-[1,2,4]triazolo[3,4-b]purine] | < 20 | < 20
7 | C[C@@H]1CN(c2nc3nncn3c3c2ncn3C[C@@H]2CCCO2)[C@@H](C)CN1C(c1ccc(Br)cc1)C1CC(F)(F)C1 (stereo partly drawn) [Example 33, 4-((2S,5R)-4-((4-Bromophenyl)(3,3-difluorocyclobutyl)methyl)-2,5-dimethylpiperazin-1-yl)-1-(((S)-tetrahydrofuran-2-yl)methyl)-1H-[1,2,4]triazolo[3,4-b]purine] | < 20 | < 20
8 | CC[C@@H]1CN(c2nc3nncn3c3c2ncn3C[C@@H]2CCCO2)[C@@H](C)CN1C(c1ccc(C(F)(F)F)cc1)C1CC(F)(F)C1 (stereo partly drawn) [Example 35, 4-((2S,5R)-4-((3,3-Difluorocyclobutyl)(4-(trifluoromethyl)phenyl)methyl)-5-ethyl-2-methylpiperazin-1-yl)-1-(((S)-tetrahydrofuran-2-yl)methyl)-1H-[1,2,4]triazolo[3,4-b]purine] | < 20 | < 20
9 | Cc1nc2c(N3C[C@@H](C)N(Cc4ccc(C(F)(F)F)cc4F)C[C@@H]3C)nc3nncn3c2n1C[C@@H]1CCCO1 [Example 37, 4-((2S,5R)-4-(2-Fluoro-4-(trifluoromethyl)benzyl)-2,5-dimethylpiperazin-1-yl)-2-methyl-1-(((S)-tetrahydrofuran-2-yl)methyl)-1H-[1,2,4]triazolo[3,4-b]purine] | < 20 | < 20
10 | C[C@@H]1CN(c2nc3nncn3c3c2ncn3C[C@@H]2CCCO2)[C@@H](C)CN1Cc1ccc(C(F)(F)F)cc1F [Example 38, 4-((2S,5R)-4-(2-Fluoro-4-(trifluoromethyl)benzyl)-2,5-dimethylpiperazin-1-yl)-1-(((S)-tetrahydrofuran-2-yl)methyl)-1H-[1,2,4]triazolo[3,4-b]purine] | < 20 | < 20
11 | C[C@@H]1CN(c2nc3nncn3c3c2ncn3C[C@@H]2CCCO2)[C@@H](C)CN1Cc1ccc(C(F)(F)F)cc1 [Example 40, 4-((2S,5R)-2,5-Dimethyl-4-(4-(trifluoromethyl)benzyl)piperazin-1-yl)-1-(((S)-tetrahydrofuran-2-yl)methyl)-1H-[1,2,4]triazolo[3,4-b]purine] | < 20 | < 20
12 | CC[C@@H]1CN(c2nc3nncn3c3c2nc(C)n3C[C@@H]2CCCO2)[C@@H](C)CN1[C@H](C)c1ccc(C(F)(F)F)cc1 [Example 42, 4-((2S,5R)-5-ethyl-2-methyl-4-((R)-1-(4-(trifluoromethyl)phenyl)ethyl)piperazin-1-yl)-2-methyl-1-(((S)-tetrahydrofuran-2-yl)methyl)-1H-[1,2,4]triazolo[3,4-b]purine] | < 20 | < 20

The next lines start with the values.

Row | IC50 (DGKζ) [nM] | IC50 (DGKα) [nM] | Compound
13 | < 20 | < 20 | COc1ccc(C(C(C)C)N2C[C@H](C)N(c3nc4nncn4c4c3nc(C)n4C[C@@H]3CCCO3)C[C@H]2C)cc1F (stereo partly drawn) [Example 24, 4-((2S,5R)-4-(1-(3-fluoro-4-methoxyphenyl)-2-methylpropyl)-2,5-dimethylpiperazin-1-yl)-2-methyl-1-(((S)-tetrahydrofuran-2-yl)methyl)-1H-[1,2,4]triazolo[3,4-b]purine]
14 | < 20 | < 20 | Cc1nc2c(N3C[C@@H](C)N([C@@H](c4ccc(Br)cc4F)C(C)C)C[C@@H]3C)nc3nncn3c2n1C[C@@H]1CCCO1 [Example 27, 4-((2S,5R)-4-((R)-1-(4-bromo-2-fluorophenyl)-2-methylpropyl)-2,5-dimethylpiperazin-1-yl)-2-methyl-1-(((S)-tetrahydrofuran-2-yl)methyl)-1H-[1,2,4]triazolo[3,4-b]purine]
15 | < 20 | < 20 | Cc1nc2c(N3C[C@@H](C)N([C@@H](c4ccc(Cl)cc4F)C(C)C)C[C@@H]3C)nc3nncn3c2n1C[C@@H]1CCCO1 [Example 29, 4-((2S,5R)-4-((R)-1-(4-chloro-2-fluorophenyl)-2-methylpropyl)-2,5-dimethylpiperazin-1-yl)-2-methyl-1-(((S)-tetrahydrofuran-2-yl)methyl)-1H-[1,2,4]triazolo[3,4-b]purine]
16 | < 20 | < 20 | C[C@@H]1CN(c2nc3nncn3c3c2ncn3C[C@@H]2CCCO2)[C@@H](C)CN1C(c1ccc(Cl)cc1F)C1CC(F)(F)C1 (stereo partly drawn) [Example 31, 4-((2S,5R)-4-((4-Chloro-2-fluorophenyl)(3,3-difluorocyclobutyl)methyl)-2,5-dimethylpiperazin-1-yl)-1-(((S)-tetrahydrofuran-2-yl)methyl)-1H-[1,2,4]triazolo[3,4-b]purine]
17 | < 20 | < 20 | CC[C@@H]1CN(c2nc3nncn3c3c2ncn3C[C@@H]2CCCO2)[C@@H](C)CN1C(c1ccc(Cl)cc1)C1CC(F)(F)C1 (stereo partly drawn) [Example 34, 4-((2S,5R)-4-((4-Chlorophenyl)(3,3-difluorocyclobutyl)methyl)-5-ethyl-2-methylpiperazin-1-yl)-1-(((S)-tetrahydrofuran-2-yl)methyl)-1H-[1,2,4]triazolo[3,4-b]purine]
18 | < 20 | < 20 | CC[C@@H]1CN(c2nc3nncn3c3c2nc(C)n3C[C@@H]2CCCO2)[C@@H](C)CN1Cc1ccc(C(F)(F)F)cc1 [Example 36, 4-((2S,5R)-5-Ethyl-2-methyl-4-(4-(trifluoromethyl)benzyl)piperazin-1-yl)-2-methyl-1-(((S)-tetrahydrofuran-2-yl)methyl)-1H-[1,2,4]triazolo[3,4-b]purine]
19 | < 20 | < 20 | Cc1nc2c(N3C[C@@H](C)N(Cc4ccc(C(F)(F)F)cc4)C[C@@H]3C)nc3nncn3c2n1C[C@@H]1CCCO1 [Example 39, 4-((2S,5R)-2,5-Dimethyl-4-(4-(trifluoromethyl)benzyl)piperazin-1-yl)-2-methyl-1-(((S)-tetrahydrofuran-2-yl)methyl)-1H-[1,2,4]triazolo[3,4-b]purine]
20 | < 20 | < 20 | CC[C@@H]1CN(c2nc3nncn3c3c2nc(C)n3C[C@@H]2CCCO2)[C@@H](C)CN1[C@@H](C)c1ccc(C(F)(F)F)cc1 [Example 41, 4-((2S,5R)-5-Ethyl-2-methyl-4-((S)-1-(4-(trifluoromethyl)phenyl)ethyl)piperazin-1-yl)-2-methyl-1-(((S)-tetrahydrofuran-2-yl)methyl)-1H-[1,2,4]triazolo[3,4-b]purine]
